Calls of active or inactive are those of the source.
Legend:
[1] = system: Streptococcus sp. 'group A'; experiment: Streptococcus pyogenes SK(-)GAS viability under kanamycin – luminescence, BacTiterGlo, confirmation, counter-screen for streptokinase expression inhibitor project, dose response (AID 1900); format: functional, organism-based
[2] = biological target: T1, Streptokinase A (Streptococcus pyogenes serotype M1, UniProt P10520); experiment: viability-normalized secreted streptokinase activity reduction – plasminogen activation absorbance, OD405, dose response (AID 1914); format: functional, Streptococcus pyogenes M1 GAS;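 further: secreted streptokinase activity via plasminogen activation per viability signal from cell pellet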
T1 sequence (P10520 whole entry): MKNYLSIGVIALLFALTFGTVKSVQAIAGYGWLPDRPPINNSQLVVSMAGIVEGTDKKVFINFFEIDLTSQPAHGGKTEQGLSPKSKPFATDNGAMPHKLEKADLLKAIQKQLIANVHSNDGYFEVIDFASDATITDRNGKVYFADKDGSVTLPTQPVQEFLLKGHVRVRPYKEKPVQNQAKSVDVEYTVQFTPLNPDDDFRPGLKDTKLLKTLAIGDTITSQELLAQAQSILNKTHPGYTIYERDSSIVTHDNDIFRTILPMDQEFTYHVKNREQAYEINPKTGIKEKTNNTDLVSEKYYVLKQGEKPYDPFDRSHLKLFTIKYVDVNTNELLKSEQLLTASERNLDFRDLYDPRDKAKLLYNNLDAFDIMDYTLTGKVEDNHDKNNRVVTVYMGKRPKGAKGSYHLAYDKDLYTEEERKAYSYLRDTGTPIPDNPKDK

[3] = system: Streptococcus; experiment: GAS UMAA2166 growth inhibition – luminescence, BacTiterGlo, counter-screen for streptokinase expression inhibitor project, dose response (AID 1915); format: functional, organism-based;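 further: potency for reduction of bacterial viability or growth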
[4] = biological target: Cytochrome P450 2C9 (Homo sapiens, UniProt P11712)
Chain of Cytochrome P450 2C9 (P11712 whole entry): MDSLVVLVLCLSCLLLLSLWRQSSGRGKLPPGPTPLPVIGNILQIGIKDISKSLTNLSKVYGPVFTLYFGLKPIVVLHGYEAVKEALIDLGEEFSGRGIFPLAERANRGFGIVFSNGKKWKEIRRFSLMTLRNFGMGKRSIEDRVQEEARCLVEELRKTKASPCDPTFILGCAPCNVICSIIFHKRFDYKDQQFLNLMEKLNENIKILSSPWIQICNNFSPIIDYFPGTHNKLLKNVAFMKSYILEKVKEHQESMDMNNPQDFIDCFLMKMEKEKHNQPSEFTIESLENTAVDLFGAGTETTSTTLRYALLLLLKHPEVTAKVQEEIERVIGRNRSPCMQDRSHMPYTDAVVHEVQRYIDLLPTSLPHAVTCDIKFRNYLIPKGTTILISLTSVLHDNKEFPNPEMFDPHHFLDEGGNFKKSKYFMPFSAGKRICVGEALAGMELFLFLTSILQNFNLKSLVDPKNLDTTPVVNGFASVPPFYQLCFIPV

[5] = Trypanosoma cruzi growth suppression in host cells – NIH3T3 host cells, beta-gal luminescence, confirmation (AID 2044); format: functional, cell-based;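 further: intracellular parasites grown in NIH/3T3 mouse fibroblasts as host cells; luminescent beta-galactosidase reporter signal from transgenic T. cruzi replicating inside host cells; inhibitors lower the luminescence signal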
[6] = NIH3T3 cell viability loss – ATP luminescence, mouse fibroblasts, counter-screen, dose response (AID 2010); format: functional, cell-based;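 further: cells exposed to compound for about 90 hours before reading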
[7] = biological target: Cytochrome P450 2C19 (Homo sapiens, UniProt P33261); experiment: Cytochrome panel assay with activity outcomes. Panel member name: p450-cyp2c19 Compounds with AC50 equal or less than 10 uM are considered active; format: functional
Chain of Cytochrome P450 2C19 (P33261 whole entry): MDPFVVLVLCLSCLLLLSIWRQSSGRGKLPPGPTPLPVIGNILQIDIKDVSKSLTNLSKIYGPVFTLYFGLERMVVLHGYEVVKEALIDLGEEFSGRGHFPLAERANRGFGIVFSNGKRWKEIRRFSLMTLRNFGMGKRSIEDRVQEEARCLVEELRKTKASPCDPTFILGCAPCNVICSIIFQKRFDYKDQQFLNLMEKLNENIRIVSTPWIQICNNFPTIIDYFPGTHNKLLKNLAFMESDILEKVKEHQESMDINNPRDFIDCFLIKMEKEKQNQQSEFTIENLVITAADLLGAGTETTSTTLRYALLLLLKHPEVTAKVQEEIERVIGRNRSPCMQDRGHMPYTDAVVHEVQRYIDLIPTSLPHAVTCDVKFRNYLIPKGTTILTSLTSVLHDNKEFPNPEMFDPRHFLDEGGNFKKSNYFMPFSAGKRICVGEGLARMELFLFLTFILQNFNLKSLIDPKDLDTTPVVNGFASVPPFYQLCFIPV

[8] = biological target: T2, Heat shock factor protein 1 (Mus musculus, UniProt P38532); experiment: decrease of HSF1-responsive luciferase luminescence – cell-based, NIH3T3, dose retest, confirmation (AID 2382); format: functional;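 further: NIH3T3 fibroblasts with HSF1-driven luciferase reporter stressed by proteasome inhibitor MG132; luminescence from HSF1-driven luciferase expression after 8 hours of MG132 stress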
T2 sequence (P38532 whole entry): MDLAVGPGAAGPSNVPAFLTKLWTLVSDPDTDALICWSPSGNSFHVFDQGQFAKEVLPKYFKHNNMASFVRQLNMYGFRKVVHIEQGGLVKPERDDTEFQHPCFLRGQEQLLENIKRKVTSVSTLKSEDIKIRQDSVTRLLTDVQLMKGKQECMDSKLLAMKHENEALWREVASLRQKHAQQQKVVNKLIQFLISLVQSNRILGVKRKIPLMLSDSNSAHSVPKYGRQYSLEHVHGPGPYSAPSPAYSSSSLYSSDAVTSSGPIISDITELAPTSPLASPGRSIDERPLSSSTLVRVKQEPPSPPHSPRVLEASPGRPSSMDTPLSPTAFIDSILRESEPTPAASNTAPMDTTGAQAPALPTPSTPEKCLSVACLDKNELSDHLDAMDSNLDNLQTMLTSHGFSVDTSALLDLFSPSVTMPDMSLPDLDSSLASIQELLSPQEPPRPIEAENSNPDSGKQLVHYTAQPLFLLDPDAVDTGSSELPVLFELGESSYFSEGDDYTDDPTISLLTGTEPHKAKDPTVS

[9] = biological target: Cytochrome P450 3A4 (Homo sapiens, UniProt P08684);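 further: CYP3A4 tested as one member of a cytochrome P450 panel screen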
Chain of Cytochrome P450 3A4 (P08684 whole entry): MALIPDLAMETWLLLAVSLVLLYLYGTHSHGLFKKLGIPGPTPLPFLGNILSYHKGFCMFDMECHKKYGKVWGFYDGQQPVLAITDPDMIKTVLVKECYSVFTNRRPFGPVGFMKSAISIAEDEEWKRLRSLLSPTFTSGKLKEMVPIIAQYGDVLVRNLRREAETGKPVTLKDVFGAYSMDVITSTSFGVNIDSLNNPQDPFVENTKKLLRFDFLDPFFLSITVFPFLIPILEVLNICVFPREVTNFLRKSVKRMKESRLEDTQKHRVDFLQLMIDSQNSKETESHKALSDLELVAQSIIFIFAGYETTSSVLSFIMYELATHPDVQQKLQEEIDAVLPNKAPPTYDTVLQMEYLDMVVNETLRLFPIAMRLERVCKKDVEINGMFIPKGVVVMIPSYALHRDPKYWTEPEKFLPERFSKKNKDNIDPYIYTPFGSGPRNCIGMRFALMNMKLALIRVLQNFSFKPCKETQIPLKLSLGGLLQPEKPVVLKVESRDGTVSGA

CNC(=O)C(=O)NCC1OCCN1S(=O)(=O)c1ccc(OC)c(OC)c1 (stereo unspecified)
EC50 [1]: > 150 µM (not active)
EC50 [2]: > 150 µM (not active)
EC50 [3]: > 150 µM (not active)

CCOc1cccc(N(C(=O)c2ccco2)C(C(=O)NC2CCCC2)c2cccnc2)c1 (stereo unspecified)
EC50 [1]: > 150 µM (not active)
EC50 [2]: > 150 µM (not active)
EC50 [3]: > 150 µM (not active)

O=C(c1cnccn1)N1CCC2(CC1)CN(Cc1ccncc1)C2
AC50 [4]: 31.6 µM (inconclusive)

O=C(Nc1cc(Sc2ccccn2)cc([N+](=O)[O-])c1)c1cccc(Cl)c1
EC50 [5]: 0.625 µM (active)
EC50 [6]: > 60 µM (not active)

COC(=O)[C@H](Cc1ccccc1)NC(=O)[C@@H](C)CO
AC50 [4]: 3.98 µM (inconclusive)

Oc1cc(CN2COc3ccccc32)c(O)cc1CNC1CCCCC1
AC50 ([7]; read-out: AC50): 1.26 µM (inconclusive)
AC50 [4]: 6.31 µM (inconclusive)

O=C(O)CSc1ccn(Cc2ccccc2)c1
AC50 [7]: inconclusive

CCCCCC(=O)NNC(=O)c1c(O)c2ccccc2n(CC)c1=O
EC50 [1]: 7.72 µM (active)
EC50 [2]: > 50 µM (not active)
EC50 [3]: 19.1 µM (active)

Cn1ncc(Cl)c1C(=O)N1CCC2(CC1)OCCO2
EC50 [1]: > 150 µM (not active)
EC50 [2]: > 150 µM (not active)
EC50 [3]: > 150 µM (not active)

C[C@]12CC[C@@H]3C(=CCc4cc(O)ccc43)[C@@H]1CCC2=O
AC50 ([7]; read-out: AC50): 7.94 µM (inconclusive)

Clc1ccc(COn2c(-c3ccc(Cl)cc3)nc3ccccc32)cc1
EC50 [1]: 8.35 µM (active)
EC50 [2]: > 50 µM (not active)
EC50 [3]: 10.8 µM (active)

NS(=O)(=O)c1ccc(/N=N\c2ccc(O)c(C(=O)O)c2)cc1
AC50 [4]: 1 µM (inconclusive)

Cc1ccc(NC(=O)C2CCN(S(C)(=O)=O)CC2)cc1
AC50 ([7]; read-out: AC50): 20 µM (inconclusive)

CN1C(C(=O)Nc2ccc(OC(F)(F)F)cc2)=CC(c2cccs2)=NS1(=O)=O
EC50 [8]: 62.2 µM (active)

O=C(CCc1nc(-c2cccs2)no1)NCc1ccc(F)cc1Cl
EC50 [8]: > 195 µM (not active)

O=S(=O)(CCc1nc2ccccc2[nH]1)c1ccc(Cl)cc1
EC50 [8]: > 195 µM (not active)

CC1=NN(C(N)=S)C(=O)C1N=Nc1c(C)cc(C)cc1C (stereo unspecified)
EC50 [1]: 5.14 µM (active)
EC50 [2]: > 150 µM (not active)
EC50 [3]: > 150 µM (not active)

COc1ccc(NC(=O)CN(C)S(=O)(=O)c2ccc(Cl)cc2)c([N+](=O)[O-])c1
AC50 [9]: 1.78 µM (inconclusive)

CCN(CC)c1ccc(CNc2nc3ccccc3n2CCN2CCOCC2)cc1
EC50 [8]: > 195 µM (not active)

c1ccc(C(NCCNC(c2ccccc2)c2ccccc2)c2ccccc2)cc1
EC50 [1]: 1.51 µM (active)
EC50 [2]: 12 µM (active)
EC50 [3]: 20.8 µM (active)

COc1ccc(C(=O)N2CCC3(CCN(Cc4ccncc4)CC3)CC2)cc1
AC50 [4]: 7.94 µM (inconclusive)

CC(=O)OCC1=C(C(=O)O)N2C(=O)C(NC(=O)Cn3nc(C(F)F)c(Cl)c3C)C2SC1 (stereo unspecified)
EC50 [1]: < 0.06 µM (active)
EC50 [3]: 0.111 µM (active)

CN(C)C(=O)CSc1nnc(O)nc1O
EC50 [8]: > 195 µM (not active)

COc1ccc(C(=O)C2CCCN(Cc3cnc(N4CCOCC4)s3)C2)c(OC)c1 (stereo unspecified)
EC50 [5]: 0.991 µM (active)
EC50 [6]: > 60 µM (not active)

CCC(=O)n1nc(-c2cccnc2)nc1NCc1cccs1
EC50 [8]: > 195 µM (not active)

COc1ccc(OC)c(NC(=O)NCc2cccnc2)c1
EC50 [1]: > 150 µM (not active)
EC50 [2]: > 150 µM (not active)
EC50 [3]: > 150 µM (not active)

CCn1cnc2c1c(=O)n(CC(=O)Nc1cc(C)on1)c(=O)n2Cc1ccccc1
EC50 [1]: > 150 µM (not active)
EC50 [2]: > 150 µM (not active)
EC50 [3]: > 150 µM (not active)

COC(=O)c1cc(C(=O)Nc2ccc(S(=O)(=O)NC(C)(C)C)cc2)cc([N+](=O)[O-])c1
EC50 [5]: 0.797 µM (active)
EC50 [6]: > 60 µM (inconclusive)

CCN(CC)CCCSc1nc2ccccc2s1
EC50 [5]: 0.445 µM (active)
EC50 [6]: > 30 µM (not active)

C[C@@H](CCCCC(=O)Nc1ccc(C(F)(F)F)cc1)NCCc1c[nH]cn1
AC50 ([7]; read-out: AC50): 15.8 µM (inconclusive)

CCOc1ccc(CCNC(=O)c2cc(-c3ccccc3)c(N3CCOCC3)s2)cc1
EC50 [5]: 1.45 µM (active)
EC50 [6]: > 60 µM (not active)

CCCCN(C)CC(O)Cn1cc(/C=C/C(=O)c2ccc(OCC)cc2)c2ccccc21 (stereo unspecified)
EC50 [5]: 0.154 µM (active)
EC50 [6]: 6.17 µM (active)

O=C(Oc1ccccc1)N1CCC[C@@]2(CCN(c3ncccn3)C2)C1
AC50 [9]: 15.8 µM (inconclusive)

Cc1[nH]c2ccccc2c1/C=C/c1nc2ccccc2c(=O)n1-c1cccc([N+](=O)[O-])c1
EC50 [8]: > 195 µM (not active)

N#Cc1cccc(-c2cc(NCc3cccnc3)ncn2)c1
AC50 ([7]; read-out: AC50): 15.8 µM (inconclusive)

CCOC(=O)c1cccc(NC(=O)C2CCN(c3ncnc4c3nc3n4CCCCC3)CC2)c1
EC50 [8]: > 195 µM (not active)

CCOc1ccc(-n2c(SCc3nc(-c4cccs4)no3)nnc2-c2ccncc2)cc1
EC50 [5]: 1.25 µM (active)
EC50 [6]: > 60 µM (not active)

COc1ccc(-c2cc3nc(C)c(CCC(=O)NCc4ccc(F)cc4)c(C)n3n2)c(OC)c1
EC50 [5]: 1.33 µM (active)
EC50 [6]: > 60 µM (inconclusive)

Cc1cccc(C(=O)NC2CCN(C(=O)N3CCOCC3)CC2)c1
AC50 ([7]; read-out: AC50): 31.6 µM (inconclusive)

CCS(=O)(=O)c1nc(S(=O)(=O)c2ccc(C)cc2)c(NCCN2CCOCC2)s1
EC50 [1]: > 150 µM (not active)
EC50 [2]: > 150 µM (not active)
EC50 [3]: > 150 µM (not active)

CCOC(=O)n1c(SCC(N)=O)nc2ccccc21
EC50 [8]: > 195 µM (not active)

C=CCO/C(O)=C1\C(C)=NC(SCC)=C(C#N)C1c1ccc(Cl)cc1 (stereo unspecified)
EC50 [1]: 4.9 µM (active)
EC50 [2]: 8.34 µM (active)
EC50 [3]: 17.6 µM (active)

COc1ccc(O[C@H]2C=C[C@@H](c3ccccc3)O[C@H]2COC(=O)CC/C(C)=N\O[C@@H](C)c2cc(-c3c(C)cc(C)cc3C)no2)cc1
AC50 [4]: 1.58 µM (inconclusive)

CN1CCN(C(=O)c2ccc3c(=O)n4c(nc3c2)CCCCC4)CC1
AC50 ([7]; read-out: AC50): 10 µM (inconclusive)

O=C(C1CCC(CNS(=O)(=O)c2cccc3cccnc23)CC1)N1CCCC1 (stereo unspecified)
EC50 [8]: > 195 µM (not active)

CCOc1ccc(-n2c(C)cc(/C=C3/C(=N)N4C(=NC3=O)SN=C4S(C)(=O)=O)c2C)cc1
EC50 [1]: 0.599 µM (active)
EC50 [2]: > 150 µM (not active)
EC50 [3]: 17.5 µM (active)

COc1ccc(NC(=O)C23CC4CC(C2)CC(n2cnc(Br)n2)(C4)C3)c(C)c1
AC50 [9]: 14.1 µM (inconclusive)

Cc1cc(C)n(-c2cc(N3CCN(S(=O)(=O)c4ccc(C)c(C)c4)CC3)ccc2[N+](=O)[O-])n1
AC50 [4]: 2.24 µM (inconclusive)

CC(Sc1nnc(Cc2cccs2)n1C1CCCCC1)C(N)=O (stereo unspecified)
AC50 [9]: 3.98 µM (inconclusive)

Cc1ccc(CN2C(=O)CCC2C(=O)NCc2cccnc2)cc1 (stereo unspecified)
AC50 [4]: 28.2 µM (inconclusive)

Clc1ccc(/C=N/N=C(/Nc2ccccc2)c2ccccn2)c(Cl)c1
EC50 [1]: 10.9 µM (active)
EC50 [2]: > 150 µM (not active)
EC50 [3]: 30.2 µM (active)

O=C(O)CCC(=O)N1CCc2cc(S(=O)(=O)NCc3cccs3)ccc21
AC50 ([7]; read-out: AC50): 25.1 µM (inconclusive)
AC50 [4]: 31.6 µM (inconclusive)

COCCOC(=O)C1=C(C)N=C(C)/C(=C(/O)OC(C)C)C1c1cccc([N+](=O)[O-])c1 (stereo unspecified)
EC50 [5]: 1.31 µM (active)
EC50 [6]: > 60 µM (not active)

CCOc1nn(-c2ccc(Cl)cc2)c(O)c1/C=N/c1ccc(Cl)cc1
AC50 [4]: 12.6 µM (inconclusive)

COc1ccc2nc(/N=C\N(C)C)sc2c1
AC50 ([7]; read-out: AC50): 22.4 µM (inconclusive)
AC50 [4]: 0.00562 µM (inconclusive)

CC1(C)OC(=O)C(/C=N/c2cccc(O)c2)=C(O)O1
AC50 [9]: 31.6 µM (inconclusive)

CC(=O)Oc1ccc2c(c1)CC[C@@H]1[C@@H]2CC[C@]2(C)[C@@H](O)CC[C@@H]12 [ESTRADIOL ACETATE]
EC50 [8]: > 195 µM (not active)
